Experimental data from patent publication US20240317752A1, “6-SUBSTITUTED-9H-PURINE DERIVATIVES AND RELATED USES” (Black Diamond Therapeutics, Inc., priority 2021, published 2024).

molecular target: T1, BaF3 BRAF-KIAA1549 fusion cells (Homo sapiens, UniProt P15056); assay: BaF3 BRAF-KIAA1549 fusion cell proliferation assay (CellTiterGlo); format: cell-based; conditions: 96 hours incubation, potency code
T1 construct: The BRAF-KIAA1549 fusion mutant was subcloned into pMXs-IRES-Blasticidin (RTV-016, Cell Biolabs, San Diego, CA); fused on or other part: Q9HCM3 (UPF0606 protein KIAA1549)
T1 sequence (P15056 whole entry, change not shown, the tested form may be a part): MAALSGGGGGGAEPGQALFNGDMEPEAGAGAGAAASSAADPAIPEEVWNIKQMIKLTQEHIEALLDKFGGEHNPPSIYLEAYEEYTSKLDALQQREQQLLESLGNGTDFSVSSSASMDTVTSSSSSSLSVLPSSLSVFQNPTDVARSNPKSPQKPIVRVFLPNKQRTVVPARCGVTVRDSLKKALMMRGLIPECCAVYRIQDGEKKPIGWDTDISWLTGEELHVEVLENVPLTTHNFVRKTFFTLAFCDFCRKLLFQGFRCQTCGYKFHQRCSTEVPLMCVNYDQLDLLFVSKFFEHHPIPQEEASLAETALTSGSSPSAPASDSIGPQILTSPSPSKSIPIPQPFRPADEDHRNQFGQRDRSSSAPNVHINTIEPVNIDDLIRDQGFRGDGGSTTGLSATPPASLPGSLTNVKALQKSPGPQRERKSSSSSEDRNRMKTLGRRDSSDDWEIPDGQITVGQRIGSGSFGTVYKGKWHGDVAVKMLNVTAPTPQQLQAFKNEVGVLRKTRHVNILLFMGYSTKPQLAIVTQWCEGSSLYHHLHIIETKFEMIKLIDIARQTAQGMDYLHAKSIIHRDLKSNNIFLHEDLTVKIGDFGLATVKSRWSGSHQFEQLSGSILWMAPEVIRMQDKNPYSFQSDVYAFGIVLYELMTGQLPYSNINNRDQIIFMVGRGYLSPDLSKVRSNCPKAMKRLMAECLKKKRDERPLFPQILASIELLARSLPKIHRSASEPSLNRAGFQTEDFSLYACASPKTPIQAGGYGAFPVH
Method in brief: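 BaF3 cells stably transduced with a BRAF-KIAA1549 fusion, blasticidin-selected and growing without IL-3, were treated with compound for 96 h in RPMI/10% heat-inactivated FBS. Viability read as ATP content by CellTiterGlo luminescence, normalised to DMSO-treated cells. IC50 by Levenberg-Marquardt fit.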

`Cc1ccc(NC(=O)c2ccc(Cl)c(N(C)C)c2)cc1Nc1ncccc1-c1ncnc2[nH]cnc12` [Compound I-81, N-(3-((3-(9H-purin-6-yl)pyridin-2-yl)amino)-4-methylphenyl)-4-chloro-3-(dimethylamino)benzamide] and `Cc1ccc(NC(=O)c2nccc(C(F)(F)F)c2Cl)cc1Nc1ncccc1-c1ncnc2[nH]cnc12` [IA-106, N-(3-(3-(9H-purin-6-yl)pyridin-2-ylamino)-4-methylphenyl)-3-chloro-4-(trifluoromethyl)picolinamide] cannot be ordered by GI50: under 20 nM for the first, under 20 nM for the second.

Compared with `Cc1ccc(NC(=O)CC2CCCCCO2)cc1Nc1ncccc1-c1ncnc2[nH]cnc12` (stereo not shown) [Compound I-82, N-(3-((3-(9H-purin-6-yl)pyridin-2-yl)amino)-4-methylphenyl)-2-(oxepan-2-yl)acetamide], `Cc1ccc(NC(=O)CC2CCNCCO2)cc1Nc1ncccc1-c1ncnc2[nH]cnc12` (stereo not shown) [Compound I-83, N-(3-((3-(9H-purin-6-yl)pyridin-2-yl)amino)-4-methylphenyl)-2-(1,4-oxazepan-7-yl)acetamide] is higher in GI50: under 20 nM for the first, at least 500 nM for the second.

First: Cc1ccc(NC(=O)CN2CCN3CCC2C3)cc1Nc1ncccc1-c1ncnc2[nH]cnc12 (stereo not shown) [Compound I-89, N-(3-((3-(9H-purin-6-yl)pyridin-2-yl)amino)-4-methylphenyl)-2-(1,4-diazabicyclo[3.2.1]octan-4-yl)acetamide]
Second: Cc1ccc(NC(=O)CN2CCCCCC2)cc1Nc1ncccc1-c1ncnc2[nH]cnc12 [IA-110, N-(3-((3-(9H-purin-6-yl)pyridin-2-yl)amino)-4-methylphenyl)-2-(azepan-1-yl)acetamide]
The GI50 of the first is higher: at least 500 nM for the first, 20 to 100 nM for the second.

Compared with `Cc1ccc(NC(=O)c2cc(C(F)F)c(C)cn2)cc1Nc1ncccc1-c1ncnc2[nH]cnc12` [IA-90, N-(3-((3-(9H-purin-6-yl)pyridin-2-yl)amino)-4-methylphenyl)-4-(difluoromethyl)-5-methylpicolinamide], `Cc1ccc(NC(=O)c2cc(C(F)(F)F)c(C)cn2)cc1Nc1ncccc1-c1ncnc2[nH]cnc12` [IA-114, N-(3-((3-(9H-purin-6-yl)pyridin-2-yl)amino)-4-methylphenyl)-5-methyl-4-(trifluoromethyl)picolinamide] is lower in GI50: 20 to 100 nM for the first, under 20 nM for the second.

Compared with `Cc1ccc(NC(=O)c2ncc(C)c(C(F)(F)F)c2F)cc1Nc1ncccc1-c1ncnc2[nH]cnc12` [IA-91, N-(3-(3-(9H-purin-6-yl)pyridin-2-ylamino)-4-methylphenyl)-3-fluoro-5-methyl-4-(trifluoromethyl)picolinamide], `Cc1ccc(NC(=O)c2nccc(C(F)(F)F)c2F)cc1Nc1ncccc1-c1ncnc2[nH]cnc12` [IA-116, N-(3-((3-(9H-purin-6-yl)pyridin-2-yl)amino)-4-methylphenyl)-3-fluoro-4-(trifluoromethyl)picolinamide] is lower in GI50: 20 to 100 nM for the first, under 20 nM for the second.

Compared with `CCc1cnc(C(=O)Nc2ccc(C)c(Nc3ncccc3-c3ncnc4[nH]cnc34)c2)cc1C(F)(F)F` [IA-92, N-(3-(3-(9H-purin-6-yl)pyridin-2-ylamino)-4-methylphenyl)-5-ethyl-4-(trifluoromethyl)picolinamide], `Cc1ccc(NC(=O)c2cc(C(F)(F)F)c(F)cn2)cc1Nc1ncccc1-c1ncnc2[nH]cnc12` [IA-115, N-(3-((3-(9H-purin-6-yl)pyridin-2-yl)amino)-4-methylphenyl)-5-fluoro-4-(trifluoromethyl)picolinamide] is lower in GI50: 20 to 100 nM for the first, under 20 nM for the second.

First: Cc1cc(C(F)(F)F)cc(C(=O)Nc2ccc(C)c(Nc3ncccc3-c3ncnc4[nH]cnc34)c2)n1 [IA-93, N-(3-((3-(9H-purin-6-yl)pyridin-2-yl)amino)-4-methylphenyl)-6-methyl-4-(trifluoromethyl)picolinamide]
Second: Cc1ccc(NC(=O)c2cc(C(F)(F)F)cc(OCCO)n2)cc1Nc1ncccc1-c1ncnc2[nH]cnc12 [IA-98, N-(3-((3-(9H-purin-6-yl)pyridin-2-yl)amino)-4-methylphenyl)-6-(2-hydroxyethoxy)-4-(trifluoromethyl)picolinamide]
The GI50 of the first is higher: 20 to 100 nM for the first, under 20 nM for the second.

First: Cc1ccc(NC(=O)c2cc(C(F)(F)F)c(OC3CN(C)C3)cn2)cc1Nc1ncccc1-c1ncnc2[nH]cnc12 [IA-94, N-(3-(3-(9H-purin-6-yl)pyridin-2-ylamino)-4-methylphenyl)-5-(1-methylazetidin-3-yloxy)-4-(trifluoromethyl)picolinamide]
Second: Cc1ccc(NC(=O)c2cc(C(F)(F)F)c(OC3COC3)cn2)cc1Nc1ncccc1-c1ncnc2[nH]cnc12 [IA-95, N-(3-(3-(9H-purin-6-yl)pyridin-2-ylamino)-4-methylphenyl)-5-(oxetan-3-yloxy)-4-(trifluoromethyl)picolinamide]
The GI50 of the first is higher: 100 to 500 nM for the first, under 20 nM for the second.

`Cc1ccc(NC(=O)c2cc(C(F)(F)F)c(OC3CNC3)cn2)cc1Nc1ncccc1-c1ncnc2[nH]cnc12` [IA-96, N-(3-(3-(9H-purin-6-yl)pyridin-2-ylamino)-4-methylphenyl)-5-(azetidin-3-yloxy)-4-(trifluoromethyl)picolinamide] and `COc1cnc(C(=O)Nc2ccc(C)c(Nc3ncccc3-c3ncnc4[nH]cnc34)c2)cc1C(F)(F)F` [IA-100, N-(3-(3-(9H-purin-6-yl)pyridin-2-ylamino)-4-methylphenyl)-5-methoxy-4-(trifluoromethyl)picolinamide] fall in the same range of GI50: 20 to 100 nM for the first, 20 to 100 nM for the second.

`Cc1ccc(NC(=O)c2cc(C(F)(F)F)c(OCCN(C)C)cn2)cc1Nc1ncccc1-c1ncnc2[nH]cnc12` [IA-97, N-(3-(3-(9H-purin-6-yl)pyridin-2-ylamino)-4-methylphenyl)-5-(2-(dimethylamino)ethoxy)-4-(trifluoromethyl)picolinamide] and `Cc1ccc(NC(=O)c2cc(C(F)(F)F)c(OCCO)cn2)cc1Nc1ncccc1-c1ncnc2[nH]cnc12` [IA-104, N-(3-(3-(9H-purin-6-yl)pyridin-2-ylamino)-4-methylphenyl)-5-(2-hydroxyethoxy)-4-(trifluoromethyl)picolinamide] cannot be ordered by GI50: under 20 nM for the first, under 20 nM for the second.

First: Cc1ccc(NC(=O)CC2CCCCOC2)cc1Nc1ncccc1-c1ncnc2[nH]cnc12 (stereo not shown) [IA-99, N-(3-(3-(9H-purin-6-yl)pyridin-2-ylamino)-4-methylphenyl)-2-(oxepan-3-yl)acetamide]
Second: Cc1ccc(NC(=O)CC2CCCOCC2)cc1Nc1ncccc1-c1ncnc2[nH]cnc12 (stereo not shown) [IA-102, N-(3-(3-(9H-purin-6-yl)pyridin-2-ylamino)-4-methylphenyl)-2-(oxepan-4-yl)acetamide]
The GI50 of the first is lower: 20 to 100 nM for the first, 100 to 500 nM for the second.

First: COc1c(C(F)(F)F)ccnc1C(=O)Nc1ccc(C)c(Nc2ncccc2-c2ncnc3[nH]cnc23)c1 [IA-101, N-(3-(3-(9H-purin-6-yl)pyridin-2-ylamino)-4-methylphenyl)-3-methoxy-4-(trifluoromethyl)picolinamide]
Second: Cc1ccc(NC(=O)c2cc(C(F)(F)F)ccn2)cc1Nc1nccc(F)c1-c1ncnc2[nH]cnc12 [IA-117, N-(3-(4-fluoro-3-(9H-purin-6-yl)pyridin-2-ylamino)-4-methylphenyl)-4-(trifluoromethyl)picolinamide]
The GI50 of the first is lower: under 20 nM for the first, 100 to 500 nM for the second.

`Cc1ccc(NC(=O)CN2CCC[C@H](C(F)(F)F)C2)cc1Nc1ncccc1-c1ncnc2[nH]cnc12` [IA-103, (S)—N-(3-(3-(9H-purin-6-yl)pyridin-2-ylamino)-4-methylphenyl)-2-(3-(trifluoromethyl)piperidin-1-yl)acetamide] and `Cc1ccc(NC(=O)CN2CCC[C@@H](C(F)(F)F)C2)cc1Nc1ncccc1-c1ncnc2[nH]cnc12` [IA-107, (R)—N-(3-((3-(9H-purin-6-yl)pyridin-2-yl)amino)-4-methylphenyl)-2-(3-(trifluoromethyl)piperidin-1-yl)acetamide] cannot be ordered by GI50: under 20 nM for the first, under 20 nM for the second.

First: Cc1ccc(NC(=O)CC2CC(C(F)(F)F)CCO2)cc1Nc1ncccc1-c1ncnc2[nH]cnc12 (stereo not shown) [IA-105, N-(3-((3-(9H-purin-6-yl)pyridin-2-yl)amino)-4-methylphenyl)-2-(4-(trifluoromethyl)tetrahydro-2H-pyran-2-yl)acetamide]
Second: Cc1ccc(NC(=O)CN2CC[C@H](C(F)(F)F)C2)cc1Nc1ncccc1-c1ncnc2[nH]cnc12 [IA-109, (S)—N-(3-((3-(9H-purin-6-yl)pyridin-2-yl)amino)-4-methylphenyl)-2-(3-(trifluoromethyl)pyrrolidin-1-yl)acetamide]
The GI50 of the first is higher: 20 to 100 nM for the first, under 20 nM for the second.

Compared with `Cc1ccc(NC(=O)C23CC(C(F)(F)F)(CO2)C3)cc1Nc1ncccc1-c1ncnc2[nH]cnc12` [IA-108, N-(3-(3-(9H-purin-6-yl)pyridin-2-ylamino)-4-methylphenyl)-4-(trifluoromethyl)-2-oxabicyclo[2.1.1]hexane-1-carboxamide], `Cc1ccc(NC(=O)CN2CC[C@@H](C(F)(F)F)C2)cc1Nc1ncccc1-c1ncnc2[nH]cnc12` [IA-111, (R)—N-(3-(3-(9H-purin-6-yl)pyridin-2-ylamino)-4-methylphenyl)-2-(3-(trifluoromethyl)pyrrolidin-1-yl)acetamide] is lower in GI50: 100 to 500 nM for the first, under 20 nM for the second.

First: Cc1ccc(NC(=O)CN2CCCCC(F)(F)C2)cc1Nc1ncccc1-c1ncnc2[nH]cnc12 [IA-112, N-(3-(3-(9H-purin-6-yl)pyridin-2-ylamino)-4-methylphenyl)-2-(3,3-difluoroazepan-1-yl)acetamide]
Second: Cc1ccc(NC(=O)CC2CCCCCC2)cc1Nc1ncccc1-c1ncnc2[nH]cnc12 [IA-113, N-(3-((3-(9H-purin-6-yl)pyridin-2-yl)amino)-4-methylphenyl)-2-cycloheptylacetamide]
The GI50 of the first is higher: 100 to 500 nM for the first, under 20 nM for the second.

First: Cc1ccc(NC(=O)c2cc(C(F)(F)F)ccn2)cc1Nc1ncc(F)cc1-c1ncnc2[nH]cnc12 [IA-118, N-(3-((5-fluoro-3-(9H-purin-6-yl)pyridin-2-yl)amino)-4-methylphenyl)-4-(trifluoromethyl)picolinamide]
Second: Cc1cc(C)c(Nc2ncccc2-c2ncnc3[nH]cnc23)cc1NC(=O)c1cc(C(F)(F)F)ccn1 [IA-119, N-(5-((3-(9H-purin-6-yl)pyridin-2-yl)amino)-2,4-dimethylphenyl)-4-(trifluoromethyl)picolinamide]
The GI50 of the first is lower: 20 to 100 nM for the first, 100 to 500 nM for the second.
